Data published in PubChem BioAssay AID256 (DTP/NCI, 2004).
Where “and” joins values, the source holds several entries; their conditions need not be identical. Equal entries are not always repeated. Inconclusive results and toxic doses are left out. How the source made its calls: active means survival T/C of 150% or more; inactive means T/C below 125% in these data.

Tested on: CD2F1 mice, L1210 leukemia ip, survival T/C
Experiment: NCI In Vivo Anticancer Drug Screen. Data for tumor model L1210 Leukemia (intraperitoneal) in CD2F1 (CDF1) mice
Conditions: higher = longer survival
How it was run: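 Vehicle-treated tumor-bearing mice served as controls (C) for compound-treated mice (T). Reported figure is T divided by C.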

[1] = endpoint: mean survival time, dose: 50.0 mg/kg/injection, schedule: Q01DX009 (ip), vehicle: saline with Tween-80
[2] = endpoint: mean survival time, dose: 100.0 mg/kg/injection, schedule: Q01DX009 (ip), vehicle: saline with Tween-80
[3] = endpoint: mean survival time, dose: 100.0 mg/kg/injection, schedule: Q04DX003 (ip), vehicle: saline with Tween-80
[4] = endpoint: mean survival time, dose: 200.0 mg/kg/injection, schedule: Q04DX003 (ip), vehicle: saline with Tween-80
[5] = endpoint: mean survival time, dose: 400.0 mg/kg/injection, schedule: Q04DX003 (ip), vehicle: saline with Tween-80
[6] = endpoint: mean survival time, dose: 100.0 mg/kg/injection, schedule: Q04DX002 (ip), vehicle: saline with Tween-80
[7] = endpoint: mean survival time, dose: 200.0 mg/kg/injection, schedule: Q04DX002 (ip), vehicle: saline with Tween-80
[8] = endpoint: mean survival time, dose: 400.0 mg/kg/injection, schedule: Q04DX002 (ip), vehicle: saline with Tween-80
[9] = endpoint: mean survival time, dose: 200.0 mg/kg/injection, schedule: Q01DX009 (ip), vehicle: saline with Tween-80
[10] = endpoint: mean survival time, dose: 400.0 mg/kg/injection, schedule: Q01DX009 (ip), vehicle: saline with Tween-80
[11] = endpoint: mean survival time, dose: 100.0 mg/kg/injection, schedule: Q01DX009 (ip), vehicle: saline
[12] = endpoint: mean survival time, dose: 200.0 mg/kg/injection, schedule: Q01DX009 (ip), vehicle: saline
[13] = endpoint: mean survival time, dose: 400.0 mg/kg/injection, schedule: Q01DX009 (ip), vehicle: saline

Measured: T/C

[Br][Pt+2][Br].[NH-]c1ccc(F)cc1.[NH-]c1ccc(F)cc1
inactive: endpoint: mean survival time, dose: 3.13 mg/kg/injection, schedule: Q04DX003 (ip), vehicle: distilled water + Tween-80 101 % of control | endpoint: mean survival time, dose: 6.25 mg/kg/injection, schedule: Q04DX003 (ip), vehicle: distilled water + Tween-80 104 % of control | endpoint: mean survival time, dose: 12.5 mg/kg/injection, schedule: Q04DX003 (ip), vehicle: distilled water + Tween-80 104 % of control | endpoint: mean survival time, dose: 25.0 mg/kg/injection, schedule: Q04DX003 (ip), vehicle: distilled water + Tween-80 108 % of control | endpoint: mean survival time, dose: 50.0 mg/kg/injection, schedule: Q04DX003 (ip), vehicle: distilled water + Tween-80 110 % of control | endpoint: mean survival time, dose: 100.0 mg/kg/injection, schedule: Q04DX003 (ip), vehicle: distilled water + Tween-80 113 % of control

Cc1ccccc1S(=O)(=O)F
inactive: [1] 103 % of control | [2] 107 % of control | [3] 92 % of control | [4] 89 % of control

Cc1nc(SCc2ccc(Cl)cc2)[nH]c(=O)c1CCO
inactive: [3] 92 % of control | [4] 96 % of control | [5] 94 % of control

CCCc1cc(=O)[nH]c(SCC(=O)O)n1
inactive: [6] 98 % of control | [7] 98 % of control | [8] 92 % of control

CC1(C)CC(=O)C=C(OCCc2ccccc2)C1
inactive: [2] 102 % of control | [9] 102 % of control | [10] 102 % of control

NC(=O)COS(=O)(=O)O
inactive: [11] 104 % of control | [12] 104 % of control | [13] 108 % of control

COc1cc(C2=NCCc3cc4c(cc32)OCO4)cc(OC)c1OC
inactive: endpoint: median survival time, dose: 6.25 mg/kg/injection, schedule: Q01DX009 (ip), vehicle: saline + alcohol 106 % of control | endpoint: median survival time, dose: 12.5 mg/kg/injection, schedule: Q01DX009 (ip), vehicle: saline + alcohol 105 % of control | endpoint: median survival time, dose: 12.5 mg/kg/injection, schedule: Q01DX009 (ip), vehicle: saline 97 % of control and 102 % of control | endpoint: median survival time, dose: 25.0 mg/kg/injection, schedule: Q01DX009 (ip), vehicle: saline + alcohol 107 % of control | endpoint: median survival time, dose: 25.0 mg/kg/injection, schedule: Q01DX009 (ip), vehicle: saline 93 % of control and 104 % of control | endpoint: median survival time, dose: 50.0 mg/kg/injection, schedule: Q01DX009 (ip), vehicle: saline + alcohol 106 % of control | endpoint: median survival time, dose: 50.0 mg/kg/injection, schedule: Q01DX009 (ip), vehicle: saline 105 % of control | endpoint: median survival time, dose: 100.0 mg/kg/injection, schedule: Q01DX009 (ip), vehicle: saline + alcohol 109 % of control | endpoint: median survival time, dose: 100.0 mg/kg/injection, schedule: Q01DX009 (ip), vehicle: saline 105 % of control

COc1ccc(/C=N/NC(=O)CNC(=O)Nc2cccc(C(F)(F)F)c2)cc1
inactive: [1] 92 % of control | [2] 88 % of control | [9] 92 % of control

C[N+]1(C)CCc2ccccc2C1Cc1ccc(Oc2ccc(CC3c4ccccc4CC[N+]3(C)C)cc2)cc1 (stereo unspecified)
inactive: endpoint: mean survival time, dose: 0.2 mg/kg/injection, schedule: Q01DX009 (ip), vehicle: saline 93 % of control | endpoint: mean survival time, dose: 0.39 mg/kg/injection, schedule: Q01DX009 (ip), vehicle: saline 96 % of control

COCC(=O)C(C(C)=O)C(c1ccncc1)C(C(C)=O)C(=O)COC (stereo unspecified)
inactive: [3] 96 % of control | [4] 98 % of control | [5] 102 % of control

O=C1c2ccccc2C(=O)c2c(Cl)cc(Cl)cc21
inactive: endpoint: mean survival time, dose: 75.0 mg/kg/injection, schedule: Q01DX001 (ip), vehicle: saline 103 % of control | endpoint: mean survival time, dose: 150.0 mg/kg/injection, schedule: Q01DX001 (ip), vehicle: saline 111 % of control | endpoint: mean survival time, dose: 300.0 mg/kg/injection, schedule: Q01DX001 (ip), vehicle: saline 102 % of control

CC(C)(C)c1cccc(OS(=O)(=O)c2cccc([N+](=O)[O-])c2)c1
inactive: [2] 94 % of control | [9] 94 % of control | [10] 94 % of control

CC(=O)C(C(=O)Nc1ccccc1)c1cc(NS(=O)(=O)c2ccccc2)ccc1O (stereo unspecified)
inactive: [3] 102 % of control | [4] 96 % of control | [5] 91 % of control

COc1ccc(-c2cc(C(=O)Nc3cc(C(F)(F)F)cc(C(F)(F)F)c3)c3ccccc3n2)cc1
inactive: endpoint: median survival time, dose: 25.0 mg/kg/injection, schedule: Q01DX005 (ip), vehicle: DMSO 100 % of control | endpoint: median survival time, dose: 50.0 mg/kg/injection, schedule: Q01DX005 (ip), vehicle: DMSO 98 % of control | endpoint: median survival time, dose: 100.0 mg/kg/injection, schedule: Q01DX005 (ip), vehicle: DMSO 98 % of control | endpoint: median survival time, dose: 200.0 mg/kg/injection, schedule: Q01DX005 (ip), vehicle: DMSO 109 % of control | endpoint: median survival time, dose: 400.0 mg/kg/injection, schedule: Q01DX005 (ip), vehicle: DMSO 106 % of control

COc1ccc([C@@H]2c3cc4c(cc3C[C@H]3COC(=O)[C@@H]32)OCO4)cc1OC
inactive: endpoint: mean survival time, dose: 11.0 mg/kg/injection, schedule: Q01DX009 (ip), vehicle: saline with Tween-80 110 % of control | endpoint: mean survival time, dose: 22.0 mg/kg/injection, schedule: Q01DX009 (ip), vehicle: saline with Tween-80 110 % of control | endpoint: mean survival time, dose: 33.0 mg/kg/injection, schedule: Q01DX009 (ip), vehicle: saline with Tween-80 109 % of control | endpoint: mean survival time, dose: 67.0 mg/kg/injection, schedule: Q01DX009 (ip), vehicle: saline with Tween-80 107 % of control

CCC1(C)C(=O)c2ccccc2N(C)C1=O (stereo unspecified)
inactive: endpoint: mean survival time, dose: 100.0 mg/kg/injection, schedule: Q01DX001 (ip), vehicle: saline with Tween-80 95 % of control | [2] 93 % of control | [6] 103 % of control and 106 % of control | [3] 97 % of control | endpoint: mean survival time, dose: 200.0 mg/kg/injection, schedule: Q01DX001 (ip), vehicle: saline with Tween-80 100 % of control | [9] 93 % of control and 102 % of control | [7] 104 % of control and 110 % of control | [4] 100 % of control | endpoint: mean survival time, dose: 400.0 mg/kg/injection, schedule: Q01DX001 (ip), vehicle: saline with Tween-80 95 % of control | [10] 101 % of control and 102 % of control | [8] 109 % of control and 110 % of control | [5] 100 % of control

O=C(CC(=O)c1ccccc1)c1ccccc1.O=C(CC(=O)c1ccccc1)c1ccccc1.[Cl][Sn][Cl]
inactive: [3] 90 % of control | [4] 94 % of control

CCOC(=O)NNC(=O)OCC
inactive: endpoint: mean survival time, dose: 12.5 mg/kg/injection, schedule: Q01DX009 (ip), vehicle: saline with Tween-80 97 % of control | endpoint: mean survival time, dose: 12.5 mg/kg/injection, schedule: Q01DX009 (ip), vehicle: saline 90 % of control | endpoint: mean survival time, dose: 25.0 mg/kg/injection, schedule: Q01DX009 (ip), vehicle: saline with Tween-80 96 % of control | endpoint: mean survival time, dose: 25.0 mg/kg/injection, schedule: Q01DX009 (ip), vehicle: saline 101 % of control | [1] 102 % of control | endpoint: mean survival time, dose: 50.0 mg/kg/injection, schedule: Q01DX009 (ip), vehicle: saline 105 % of control

O=P(O)(O)OCCCl
inactive: [11] 94 % of control | endpoint: mean survival time, dose: 100.0 mg/kg/injection, schedule: Q04DX003 (ip), vehicle: saline 100 % of control | [12] 96 % of control | endpoint: mean survival time, dose: 200.0 mg/kg/injection, schedule: Q04DX003 (ip), vehicle: saline 94 % of control | [13] 94 % of control | endpoint: mean survival time, dose: 400.0 mg/kg/injection, schedule: Q04DX003 (ip), vehicle: saline 94 % of control

Cc1ccc(NCCN2CCCCC2)c2c(=O)c3ccccc3sc12
inactive: endpoint: mean survival time, dose: 100.0 mg/kg/injection, schedule: Q04DX003 (ip), vehicle: Klucel (hydroxypropylcellulose) (HPC) 93 % of control | endpoint: mean survival time, dose: 200.0 mg/kg/injection, schedule: Q04DX003 (ip), vehicle: Klucel (hydroxypropylcellulose) (HPC) 103 % of control | endpoint: mean survival time, dose: 400.0 mg/kg/injection, schedule: Q04DX003 (ip), vehicle: Klucel (hydroxypropylcellulose) (HPC) 109 % of control

CCOC(=O)C(=Cc1ccc(C=C(C(=O)OCC)C(=O)OCC)cc1)C(=O)OCC
inactive: endpoint: mean survival time, dose: 50.0 mg/kg/injection, schedule: Q01DX009 (ip), vehicle: Klucel (hydroxypropylcellulose) (HPC) 95 % of control | endpoint: mean survival time, dose: 100.0 mg/kg/injection, schedule: Q01DX009 (ip), vehicle: Klucel (hydroxypropylcellulose) (HPC) 95 % of control | endpoint: mean survival time, dose: 200.0 mg/kg/injection, schedule: Q01DX009 (ip), vehicle: Klucel (hydroxypropylcellulose) (HPC) 89 % of control

CC1(C)CCC2(C(=O)O)CCC3(C)C(=CCC4C5(C)CC(O)C(OC6OC(CO)C(O)C(O)C6O)C(C)(CO)C5C(O)CC43C)C2C1 (stereo unspecified)
inactive: endpoint: mean survival time, dose: 50.0 mg/kg/injection, schedule: Q04DX002 (ip), vehicle: saline with Tween-80 102 % of control

O=C(O)C1(c2ccccc2)CC1
inactive: endpoint: mean survival time, dose: 100.0 mg/kg/injection, schedule: Q01DX009 (ip), vehicle: saline sonified 88 % of control | [3] 97 % of control | endpoint: mean survival time, dose: 200.0 mg/kg/injection, schedule: Q01DX009 (ip), vehicle: saline sonified 92 % of control | [4] 97 % of control | endpoint: mean survival time, dose: 400.0 mg/kg/injection, schedule: Q01DX009 (ip), vehicle: saline sonified 94 % of control | [5] 110 % of control
